# According to PubChem BioAssay AID328 (DTP/NCI, 2004):
# “And” between values parts separate entries of the source, which are not always exact repeats. Equal entries are not always repeated. Toxic doses and inconclusive results are not listed.
# Tested on: BDF1 mice, P388 leukemia ip, median survival T/C
# Assay: NCI In Vivo Anticancer Drug Screen. Data for tumor model P388 Leukemia (intraperitoneal) in B6D2F1 (BDF1) mice
# Conditions: endpoint: median survival time, higher = longer survival
# Outline: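 Reported as T/C, where T is the survival measurement in dosed animals and C the same measurement in vehicle controls.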
# [1] = dose: 25.0 mg/kg/injection, schedule: Q01DX009 (ip), vehicle: saline with Tween-80
# [2] = dose: 50.0 mg/kg/injection, schedule: Q01DX009 (ip), vehicle: saline with Tween-80
# [3] = dose: 12.5 mg/kg/injection, schedule: Q01DX009 (ip), vehicle: saline with Tween-80
# [4] = dose: 25.0 mg/kg/injection, schedule: Q04DX003 (ip), vehicle: saline with Tween-80
# [5] = dose: 50.0 mg/kg/injection, schedule: Q04DX003 (ip), vehicle: saline with Tween-80
# [6] = dose: 100.0 mg/kg/injection, schedule: Q04DX003 (ip), vehicle: saline with Tween-80
# [7] = dose: 25.0 mg/kg/injection, schedule: Q01DX009 (ip), vehicle: saline
# [8] = dose: 50.0 mg/kg/injection, schedule: Q01DX009 (ip), vehicle: saline
# [9] = dose: 50.0 mg/kg/injection, schedule: Q04DX003 (ip), vehicle: saline
# [10] = dose: 200.0 mg/kg/injection, schedule: Q04DX003 (ip), vehicle: saline with Tween-80
# [11] = dose: 400.0 mg/kg/injection, schedule: Q04DX003 (ip), vehicle: saline with Tween-80
# [12] = dose: 100.0 mg/kg/injection, schedule: Q01DX009 (ip), vehicle: saline with Tween-80
# [13] = dose: 200.0 mg/kg/injection, schedule: Q01DX009 (ip), vehicle: saline with Tween-80
smiles,measurement,setting,value
O/N=c1/ccn(O)c2ccccc12,T/C,"dose: 0.14 mg/kg/injection, schedule: Q01DX009 (ip), vehicle: saline",168 % of control
same,T/C,"dose: 0.19 mg/kg/injection, schedule: Q04DX003 (ip), vehicle: saline",116 % of control
same,T/C,"dose: 0.29 mg/kg/injection, schedule: Q04DX003 (ip), vehicle: saline",120 % of control
same,T/C,"dose: 0.34 mg/kg/injection, schedule: Q01DX009 (ip), vehicle: saline",155 % of control and 183 % of control and 190 % of control
same,T/C,"dose: 0.44 mg/kg/injection, schedule: Q04DX003 (ip), vehicle: saline",180 % of control
same,T/C,"dose: 0.51 mg/kg/injection, schedule: Q01DX009 (ip), vehicle: saline",162 % of control and 170 % of control and 195 % of control
same,T/C,"dose: 0.66 mg/kg/injection, schedule: Q04DX003 (ip), vehicle: saline",210 % of control
same,T/C,"dose: 1.0 mg/kg/injection, schedule: Q04DX003 (ip), vehicle: saline",172 % of control
same,T/C,"dose: 1.5 mg/kg/injection, schedule: Q04DX003 (ip), vehicle: saline",181 % of control
same,T/C,"dose: 4.65 mg/kg/injection, schedule: Q04DX003 (ip), vehicle: saline",173 % of control
same,T/C,"dose: 11.0 micrograms/kg/injection, schedule: Q01DX009 (ip), vehicle: saline",104 % of control
same,T/C,"dose: 22.0 micrograms/kg/injection, schedule: Q01DX009 (ip), vehicle: saline",108 % of control
same,T/C,"dose: 45.0 micrograms/kg/injection, schedule: Q01DX009 (ip), vehicle: saline",104 % of control
Cc1ccc(NC(=O)Oc2c(C)cc(Cl)cc2C)c([N+](=O)[O-])c1,T/C,[1],90 % of control
same,T/C,[2],101 % of control
O=C(CC(=O)C(F)(F)F)c1csc2ccccc12,T/C,[3],100 % of control
same,T/C,"dose: 25.0 mg/kg/injection, schedule: Q01DX009 (ip), vehicle: gum acacia",112 % of control
same,T/C,[1],112 % of control
same,T/C,"dose: 25.0 mg/kg/injection, schedule: Q04DX003 (ip), vehicle: gum acacia",111 % of control
same,T/C,"dose: 50.0 mg/kg/injection, schedule: Q01DX001 (ip), vehicle: Klucel (hydroxypropylcellulose) (HPC)",104 % of control
same,T/C,"dose: 50.0 mg/kg/injection, schedule: Q01DX009 (ip), vehicle: gum acacia",120 % of control
same,T/C,[2],91 % of control
same,T/C,"dose: 50.0 mg/kg/injection, schedule: Q04DX003 (ip), vehicle: gum acacia",100 % of control
same,T/C,"dose: 66.0 mg/kg/injection, schedule: Q01DX009 (ip), vehicle: gum acacia",107 % of control
same,T/C,"dose: 66.0 mg/kg/injection, schedule: Q01DX009 (ip), vehicle: saline with Tween-80",120 % of control
same,T/C,"dose: 75.0 mg/kg/injection, schedule: Q01DX009 (ip), vehicle: Klucel (hydroxypropylcellulose) (HPC)",115 % of control
same,T/C,"dose: 100.0 mg/kg/injection, schedule: Q01DX001 (ip), vehicle: Klucel (hydroxypropylcellulose) (HPC)",113 % of control
same,T/C,"dose: 100.0 mg/kg/injection, schedule: Q04DX003 (ip), vehicle: gum acacia",107 % of control and 111 % of control
same,T/C,"dose: 115.0 mg/kg/injection, schedule: Q01DX009 (ip), vehicle: Klucel (hydroxypropylcellulose) (HPC)",120 % of control
same,T/C,"dose: 150.0 mg/kg/injection, schedule: Q01DX009 (ip), vehicle: gum acacia",100 % of control
same,T/C,"dose: 200.0 mg/kg/injection, schedule: Q01DX001 (ip), vehicle: Klucel (hydroxypropylcellulose) (HPC)",86 % of control
O=Cc1ccc([N+](=O)[O-])s1,T/C,"dose: 3.13 mg/kg/injection, schedule: Q01DX009 (ip), vehicle: saline with Tween-80",99 % of control
same,T/C,"dose: 6.25 mg/kg/injection, schedule: Q01DX009 (ip), vehicle: saline with Tween-80",99 % of control and 118 % of control
same,T/C,[3],115 % of control
same,T/C,[1],123 % of control
same,T/C,[2],118 % of control
C/C=C/N=NNc1ccccc1OC,T/C,[4],113 % of control
same,T/C,[5],104 % of control
same,T/C,[6],104 % of control
CCOc1ccc(-c2cc(C)n(C)[n+]2C)cc1,T/C,[3],100 % of control
same,T/C,[1],98 % of control
same,T/C,[2],92 % of control
Cc1[nH]c(=O)[nH]c(=O)c1NC(=O)c1ccccc1[N+](=O)[O-],T/C,[3],95 % of control
same,T/C,"dose: 12.5 mg/kg/injection, schedule: Q04DX003 (ip), vehicle: saline with Tween-80",92 % of control
same,T/C,[1],104 % of control
same,T/C,[4],92 % of control
same,T/C,[2],87 % of control
same,T/C,[5],92 % of control
COc1cc2c(cc1OC)C(C)=NCC2,T/C,"dose: 3.0 mg/kg/injection, schedule: Q01DX001 (ip), vehicle: saline",104 % of control
same,T/C,"dose: 6.0 mg/kg/injection, schedule: Q01DX001 (ip), vehicle: saline",104 % of control
same,T/C,"dose: 12.0 mg/kg/injection, schedule: Q01DX001 (ip), vehicle: saline",108 % of control
same,T/C,"dose: 12.0 mg/kg/injection, schedule: Q01DX009 (ip), vehicle: saline",100 % of control
same,T/C,"dose: 12.0 mg/kg/injection, schedule: Q04DX003 (ip), vehicle: saline",95 % of control
same,T/C,"dose: 25.0 mg/kg/injection, schedule: Q01DX001 (ip), vehicle: saline",104 % of control
same,T/C,[7],100 % of control
same,T/C,"dose: 25.0 mg/kg/injection, schedule: Q04DX003 (ip), vehicle: saline",104 % of control
same,T/C,"dose: 50.0 mg/kg/injection, schedule: Q01DX001 (ip), vehicle: saline",108 % of control
same,T/C,[8],95 % of control
same,T/C,[9],100 % of control
CN(C)CCCNc1c2ccccc2nc2cccc([N+](=O)[O-])c12,T/C,"dose: 0.2 mg/kg/injection, schedule: Q04DX003 (ip), vehicle: saline",124 % of control
same,T/C,"dose: 0.5 mg/kg/injection, schedule: Q04DX003 (ip), vehicle: saline",101 % of control
CC(C)N1CCC(=O)NC1=O,T/C,"dose: 25.0 mg/kg/injection, schedule: Q01DX001 (ip), vehicle: saline sonified",104 % of control
same,T/C,"dose: 50.0 mg/kg/injection, schedule: Q01DX001 (ip), vehicle: saline sonified",104 % of control
same,T/C,"dose: 100.0 mg/kg/injection, schedule: Q01DX001 (ip), vehicle: saline sonified",100 % of control
Cc1sc2ncnc(N)c2c1C,T/C,[5],103 % of control
same,T/C,[6],105 % of control
same,T/C,[10],94 % of control
same,T/C,[11],105 % of control
NOCc1cccc(CON)c1,T/C,"dose: 12.5 mg/kg/injection, schedule: Q01DX009 (ip), vehicle: saline",100 % of control
same,T/C,[7],87 % of control
same,T/C,[8],91 % of control
same,T/C,[9],91 % of control
same,T/C,"dose: 100.0 mg/kg/injection, schedule: Q04DX003 (ip), vehicle: saline",91 % of control
same,T/C,"dose: 200.0 mg/kg/injection, schedule: Q04DX003 (ip), vehicle: saline",91 % of control
Cc1ccc(S(=O)(=O)NC(=O)Oc2nc3cc(Cl)ccc3o2)cc1,T/C,[2],99 % of control
same,T/C,[12],114 % of control
same,T/C,[13],96 % of control
COc1cc([C@@H]2Oc3cc([C@@H]4Oc5cc(O)cc(O)c5C(=O)[C@H]4O)ccc3O[C@H]2CO)ccc1O,T/C,[6],107 % of control
same,T/C,[10],93 % of control
same,T/C,[11],97 % of control
CCCc1c(N)c2ccccc2c2ccccc12,T/C,"dose: 100.0 mg/kg/injection, schedule: Q04DX002 (ip), vehicle: saline with Tween-80",86 % of control
same,T/C,"dose: 200.0 mg/kg/injection, schedule: Q04DX002 (ip), vehicle: saline with Tween-80",96 % of control
same,T/C,"dose: 400.0 mg/kg/injection, schedule: Q04DX002 (ip), vehicle: saline with Tween-80",102 % of control
OC1(O)CCN(Cc2ccccc2)CC1,T/C,[2],122 % of control
same,T/C,[5],95 % of control
same,T/C,[12],104 % of control
same,T/C,[6],100 % of control
same,T/C,[13],95 % of control
same,T/C,[10],105 % of control
Cn1cc(S(C)=O)c(=O)c2ccccc21 (stereo unspecified),T/C,[8],99 % of control
same,T/C,"dose: 100.0 mg/kg/injection, schedule: Q01DX009 (ip), vehicle: saline",99 % of control
same,T/C,"dose: 200.0 mg/kg/injection, schedule: Q01DX009 (ip), vehicle: saline",111 % of control
OC(CCl)CN1CC[N+]2(CC1)CC[N+]1(CCN(CC(O)CCl)CC1)CC2 (stereo unspecified),T/C,"dose: 11.25 mg/kg/injection, schedule: Q01DX009 (ip), vehicle: water",114 % of control
same,T/C,"dose: 27.5 mg/kg/injection, schedule: Q01DX009 (ip), vehicle: water",100 % of control
same,T/C,"dose: 45.0 mg/kg/injection, schedule: Q01DX009 (ip), vehicle: water",115 % of control
same,T/C,"dose: 200.0 mg/kg/injection, schedule: Q01DX009 (ip), vehicle: water",153 % of control and 159 % of control
